Source: patent US8742106B2 (Novartis AG, priority 2009, dated 2014)

Assays:
human orexin 1 receptors = human orexin 1 receptors (Homo sapiens (Human), UniProt O43613); experiment: Calcium Accumulation in Cells (FLIPR), antagonism of orexin A; assay type: cell-based; details: for inhibition at 10 µM: measured at a concentration of 10 μM of compound, read-out: FLIPR hOx1R % inhibition value; for Ki: antagonism of orexin A, Cheng-Prusoff corrected, read-out: FLIPR hOx1R Ki
Method: (§1) Calcium Accumulation in Cells (FLIPR):
Cells expressing human orexin 1 or human orexin 2 receptors, were seeded at 8,000 cells/well in 384 well black-walled clear bottom, poly-D-lysine coated plates. After 24 h, the medium was removed and cells were washed once with phosphate buffered saline and serum-deprived overnight in assay buffer (130 mM NaCl, 5.4 mM KCl, 1.8 mM CaCl2, 0.8 mM MgSO4, 0.9 mM NaH2PO4, 25 mM glucose, 20 mM HEPES, pH 7.4) containing bovine serum albumin (1% w/v).
On the day of the experiment, the cells seeded in black plates were treated with assay buffer containing the Ca^2+ sensitive fluorescent dye Fluo4-AM (2 μM), and probenecid (0.1 mM). After 1 h plates were washed twice with, and resuspended in, assay buffer containing probenecid (0.1 mM) using a multi plate washer. The plates were placed into a FLIPR II (Fluorometric Imaging Plate Reader, Molecular Devices, Sunnyvale, Calif., USA) and baseline fluorescence (fluorescence light units, FLU) was measured (5 measurements, 2 S each; laser excitation 488 nm at 0.6-1 W, CCD camera exposure 0.4 s) before addition of buffer alone (basal) or containing test compounds (either compound of formula (I) or (I′) alone, agonist alone or agonist in the presence of various concentrations of compounds of formula (I) or (I′)). Fluorescence measurements were then continued every 1 S for 120 S followed by every 4 S for 240 S.
(§2) The measurements were typically made in two sequences:
(§3) In the first round, compounds of formula (I) or (I′) were tested alone, to detect possible agonist activity. Compounds of formula I or I′ were tested usually in a concentration range from 10^−9 M to 10^−5 M.
(§4) In the second round, performed one hour later (to allow for equilibration), Orexin A was tested either in the absence (calibration curves, Orexin A agonist controls) or in the presence of compounds of formula (I) or (I′) to determine antagonism.

human orexin 2 receptors = human orexin 2 receptors (Homo sapiens (Human), UniProt O43614); experiment: as above; assay type: cell-based; details: for inhibition at 10 µM: measured at a concentration of 10 μM of compound, read-out: FLIPR hOx2R % inhibition value; for Ki: antagonism of orexin A, Cheng-Prusoff corrected, read-out: FLIPR hOx2R Ki
Chain of human orexin 2 receptors (O43614 whole entry): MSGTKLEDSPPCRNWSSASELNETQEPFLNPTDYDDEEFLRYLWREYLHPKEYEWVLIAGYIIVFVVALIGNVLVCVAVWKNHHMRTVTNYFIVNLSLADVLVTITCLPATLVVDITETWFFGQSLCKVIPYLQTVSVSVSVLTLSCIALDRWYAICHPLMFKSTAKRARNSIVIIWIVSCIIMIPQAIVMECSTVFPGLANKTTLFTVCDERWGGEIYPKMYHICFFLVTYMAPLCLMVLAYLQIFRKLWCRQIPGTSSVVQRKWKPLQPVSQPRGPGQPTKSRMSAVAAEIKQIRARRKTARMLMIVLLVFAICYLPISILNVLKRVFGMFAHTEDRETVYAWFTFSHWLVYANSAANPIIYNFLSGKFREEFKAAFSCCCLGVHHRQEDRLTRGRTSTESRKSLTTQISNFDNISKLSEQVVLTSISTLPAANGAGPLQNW
Method: as §1
Cells expressing human orexin 1 or human orexin 2 receptors, were seeded at 8,000 cells/well in 384 well black-walled clear bottom, poly-D-lysine coated plates.
On the day of the experiment, the cells seeded in black plates were treated with assay buffer containing the Ca^2+ sensitive fluorescent dye Fluo4-AM (2 μM), and probenecid (0.1 mM). After 1 h plates were washed twice with, and resuspended in, assay buffer containing probenecid (0.1 mM) using a multi plate washer. […] Fluorescence measurements were then continued every 1 S for 120 S followed by every 4 S for 240 S.
as §2, §3, §4

Chain of human orexin 1 receptors (O43613 whole entry): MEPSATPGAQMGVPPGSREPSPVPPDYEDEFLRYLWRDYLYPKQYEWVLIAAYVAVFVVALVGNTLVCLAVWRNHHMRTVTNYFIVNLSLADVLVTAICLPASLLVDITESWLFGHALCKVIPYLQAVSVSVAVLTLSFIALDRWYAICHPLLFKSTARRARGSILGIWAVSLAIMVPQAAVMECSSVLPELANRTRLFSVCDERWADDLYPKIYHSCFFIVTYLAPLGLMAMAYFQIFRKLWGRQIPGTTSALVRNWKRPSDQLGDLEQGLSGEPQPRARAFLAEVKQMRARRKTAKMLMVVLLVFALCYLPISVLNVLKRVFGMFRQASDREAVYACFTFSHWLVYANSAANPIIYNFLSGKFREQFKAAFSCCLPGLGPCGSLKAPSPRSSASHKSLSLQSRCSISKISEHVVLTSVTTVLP

SMILES | inhibition at 10 µM (human orexin 1 receptors) [%] | inhibition at 10 µM (human orexin 2 receptors) [%] | Ki (human orexin 1 receptors) [nM] | Ki (human orexin 2 receptors) [nM]
CC(Oc1cc(C(F)(F)F)c2c(-c3ccccc3)nn(C)c2n1)C(=O)N[C@@H](C)c1ccccc1 (single isomer, unassigned) [Example 1.74] | < 10 | < 10 |  | 
COc1ccc2c(c1)CC[C@@H]2NC(=O)C(C)Oc1cc(C)c2c(C3CC3)nn(C)c2n1 (single isomer, unassigned) [Example 6.72, (S or R)-2-(3-cyclopropyl-1,4-dimethyl-1H-pyrazolo[3,4-b]pyridin-6-yloxy)-N-((S)-5-methoxy-2,3-dihydro-1H-inden-1-yl)propanamide] | 46 | 48 |  | 
COc1ccc([C@H](C)NC(=O)C(C)Oc2cc(C)c3c(C4CC4)nn(C)c3n2)cc1 (single isomer, unassigned) [Example 6.73, (S or R)-2-(3-cyclopropyl-1,4-dimethyl-1H-pyrazolo[3,4-b]pyridin-6-yloxy)-N-((S)-1-(4-methoxyphenyl)ethyl)propanamide] | 43 | 29 |  | 
C[C@H](NC(=O)COc1cc(C(F)(F)F)c2c(-c3ccccc3)n[nH]c2n1)c1ccccc1 [Example 1.2, (S)-2-(3-phenyl-4-(trifluoromethyl)-1H-pyrazolo[3,4-b]pyridin-6-yloxy)-N-(1-phenylethyl)acetamide] |  |  | 200 | 43
CCOc1ccccc1CNC(=O)COc1cc(C(F)(F)F)c2c(-c3ccccc3)nn(C)c2n1 [Example 1.7, N-(2-ethoxybenzyl)-2-(1-methyl-3-phenyl-4-(trifluoromethyl)-1H-pyrazolo[3,4-b]pyridin-6-yloxy)acetamide] |  |  | 1020 | 337
Cn1nc(-c2ccccc2)c2c(C(F)(F)F)cc(OCC(=O)NCc3cccc(F)c3)nc21 [Example 1.8, N-(3-fluorobenzyl)-2-(1-methyl-3-phenyl-4-(trifluoromethyl)-1H-pyrazolo[3,4-b]pyridin-6-yloxy)acetamide] | 39 |  |  | 1620
Cn1nc(-c2ccccc2)c2c(C(F)(F)F)cc(OCC(=O)NC3CCCCC3)nc21 [Example 1.9, N-cyclohexyl-2-(1-methyl-3-phenyl-4-(trifluoromethyl)-1H-pyrazolo[3,4-b]pyridin-6-yloxy)acetamide] | 32 |  |  | 2500
Cn1nc(-c2ccccc2)c2c(C(F)(F)F)cc(OCC(=O)NC3CCCC3)nc21 [Example 1.10, N-cyclopentyl-2-(1-methyl-3-phenyl-4-(trirfluoromethyl)-1H-pyrazolo[3,4-b]pyridin-6-yloxy)acetamide] |  |  | 650 | 324
Cn1nc(-c2ccccc2)c2c(C(F)(F)F)cc(OCC(=O)NCc3ccc(Cl)cc3)nc21 [Example 1.11, N-(4-chlorobenzyl)-2-(1-methyl-3-phenyl-4-(trifluoromethyl)-1H-pyrazolo[3,4-b]pyridin-6-yloxy)acetamide] |  |  | 2010 | 251
Cn1nc(-c2ccccc2)c2c(C(F)(F)F)cc(OCC(=O)NCc3ccccc3)nc21 [Example 1.12, N-benzyl-2-(1-methyl-3-phenyl-4-(trifluoromethyl)-1H-pyrazolo[3,4-b]pyridin-6-yloxy)acetamide] |  |  | 2500 | 1380
Cc1cc(OCC(=O)NCc2ccccc2Cl)nc2c1c(-c1ccccc1)nn2C [Example 1.14, N-(2-chlorobenzyl)-2-(1,4-dimethyl-3-phenyl-1H-pyrazolo[3,4-b]pyridin-6-yloxy)acetamide] |  | 33 | 422 | 
Cc1cc(OCC(=O)NCc2ccc3c(c2)OCO3)nc2c1c(-c1ccccc1)nn2C [Example 1.15, N-(benzo[d][1,3]dioxol-5-ylmethyl)-2-(1,4-dimethyl-3-phenyl-1H-pyrazolo[3,4-b]pyridin-6-yloxy)acetamide] | 44 | 39 |  | 
C[C@H](NC(=O)COc1cc(C(F)(F)F)c2c(-c3ccccn3)nn(C)c2n1)c1ccccc1 [Example 1.21, (S)-2-(1-methyl-3-(pyridin-2-yl)-4-(trifiuoromethyl)-1H-pyrazolo[3,4-b]pyridin-6-yloxy)-N-(1-phenylethyl)acetamide] | 38 | 29 |  | 
C[C@H](NC(=O)COc1cc(C(F)(F)F)c2c(-c3ccncc3)nn(C)c2n1)c1ccccc1 [Example 1.25, (S)-2-(1-methyl-3-(pyridin-4-yl)-4-(trifluoromethyl)-1H-pyrazolo[3,4-b]pyridin-6-yloxy)-N-(1-phenylethyl)acetamide] | 54 | 52 |  | 
Cc1ccccc1-c1nn(C)c2nc(OCC(=O)N[C@@H](C)c3ccccc3)cc(C(F)(F)F)c12 [Example 1.26, (S)-2-(1-methyl-3-o-tolyl-4-(trifluoromethyl)-1H-pyrazolo[3,4-b]pyridin-6-yloxy)-N-(1-phenylethyl)acetamide] |  |  | 218 | 183
C[C@@H](NC(=O)COc1cc(C(F)(F)F)c2c(-c3ccccc3)nn(C)c2n1)c1ccccc1 [Example 1.27, (R)-2-(1-methyl-3-phenyl-4-(trifluoromethyl)-1H-pyrazolo[3,4-b]pyridin-6-yloxy)-N-(1-phenylethyl)acetamide] | 33 | 35 |  | 
Cc1ccc(C(C)NC(=O)COc2cc(C(F)(F)F)c3c(-c4ccccc4)nn(C)c3n2)o1 (centres unmarked) [Example 1.28, 2-(1-methyl-3-phenyl-4-(trifluoromethyl)-1H-pyrazolo[3,4-b]pyridin-6-yloxy)-N-(1-(5-methylfuran-2-yl)ethyl)acetamide] |  |  | 941 | 411
CC(NC(=O)COc1cc(C(F)(F)F)c2c(-c3ccccc3)nn(C)c2n1)c1ccccn1 (centres unmarked) [Example 1.29, 2-(1-methyl-3-phenyl-4-(trifluoromethyl)-1H-pyrazolo[3,4-b]pyridin-6-yloxy)-N-(1-(pyridin-2-yl)ethyl)acetamide] |  | 44 | 2670 | 
CC(NC(=O)COc1cc(C(F)(F)F)c2c(-c3ccccc3)nn(C)c2n1)c1cccnc1 (centres unmarked) [Example 1.30, 2-(1-methyl-3-phenyl-4-(trifluoromethyl)-1H-pyrazolo[3,4-b]pyridin-6-yloxy)-N-(1-(pyridin-3-yl)ethyl)acetamide] |  |  | 970 | 582
CC(NC(=O)COc1cc(C(F)(F)F)c2c(-c3ccccc3)nn(C)c2n1)c1ccncc1 (centres unmarked) [Example 1.31, 2-(1-methyl-3-phenyl-4-(trifluoromethyl)-1H-pyrazolo[3,4-b]pyridin-6-yloxy)-N-(1-(pyridin-4-yl)ethyl)acetamide] |  | 40 | 2110 | 
COc1cccc(CNC(=O)COc2cc(C(F)(F)F)c3c(-c4ccccc4)nn(C)c3n2)c1 [Example 1.33, N-(3-methoxybenzyl)-2-(1-methyl-3-phenyl-4-(trifluoromethyl)-1H-pyrazolo[3,4-b]pyridin-6-yloxy)acetamide] |  |  | 1650 | 427
C[C@H](NC(=O)COc1cc(C(F)(F)F)c2c(-c3cccnc3)nn(C)c2n1)c1ccccc1 [Example 1.34, (S)-2-(1-methyl-3-(pyridin-3-yl)-4-(trifluoromethyl)-1H-pyrazolo[3,4-b]pyridin-6-yloxy)-N-(1-phenylethyl)acetamide] |  |  | 869 | 323
Cc1n[nH]c(C)c1[C@@H](C)NC(=O)COc1cc(C(F)(F)F)c2c(-c3ccccc3)nn(C)c2n1 [Example 1.62, (R)-N-(1-(3,5-dimethyl-1H-pyrazol-4-yl)ethyl)-2-(1-methyl-3-phenyl-4-(trifluoromethyl)-1H-pyrazolo[3,4-b]pyridin-6-yloxy)acetamide] |  | 36 |  | 
COc1ccc([C@H](C)NC(=O)COc2cc(C)c3c(-c4cc(OC)cc(OC)c4)nn(C)c3n2)cc1 [Example 6.1, (S)-2-((3-(3,5-dimethoxyphenyl)-1,4-dimethyl-1H-pyrazolo[3,4-b]pyridin-6-yl)oxy)-N-(1-(4-methoxyphenyl)ethyl)acetamide] |  |  |  | 185
COc1ccc2c(c1)CC[C@H]2NC(=O)COc1cc(C)c2c(C3CC3)nn(C)c2n1 [Example 6.4, (R)-2-(3-cyclopropyl-1,4-dimethyl-1H-pyrazolo[3,4-b]pyridin-6-yloxy)-N-(5-methoxy-2,3-dihydro-1H-inden-1-yl)acetamide] |  |  | 1760 | 
